Patent US8980226B2, “Aerosolized fosfomycin/aminoglycoside combination for the treatment of bacterial respiratory infections” (Gilead Sciences, Inc., priority 2004, dated 2015)

System: P. aeruginosa ATCC 27853
Experiment: MBC/MIC, broth microdilution
Assay type: cell-based
Conditions: aminoglycoside alone
Method: “Minimal bactericidal concentration (MBC)” means the lowest concentration of antibiotic that results in ≧3 Log10 of bacterial killing.
The MICs of amikacin, arbekacin, dibekacin, gentamicin, kanamycin, netilimicin, neomycin, streptomycin, and tobramycin alone were determined for P. aeruginosa ATCC 27853 by the broth-microdilution method according to NCCLS standards (NCCLS, 2003). E. coli ATCC 25922 and S. aureus ATCC 29213 were used as quality control stains. Bacterial strains were streaked onto blood agar plates, and incubated at 35° C. for 18 hours. Two to three bacterial colonies from the overnight cultures were inoculated into 3 mL of sterile normal saline, vortexed briefly, and adjusted to a 0.5 McFarland standard (NCCLS, 2003). The bacterial suspension was diluted 1:100 in cation-adjusted Mueller-Hinton broth (hereafter referred to as CAMHB). Fifty microliters of bacterial inoculum (approximately 2×10^5 CFU/mL) was pipeted into individual wells of 96-well plates containing 50 μl of CAMHB (Remel, Lenexa, Kanas) supplemented with 2-fold dilutions of antibiotics ranging in concentration from 0.125 μg/mL to 128 μg/mL. The MIC was defined as the lowest concentration of antibiotic (s) that prevented visible growth after incubation at 35° C. for 18-24 hours.
The MBCs of fosfomycin, amikacin, arbekacin, dibikacin, gentamicin, kanamycin B, netilimicin, neomycin, streptomycin, or tobramycin alone for P. aeruginosa ATCC 27853, E. coli ATCC 25922, and S. aureus ATCC 29213 were determined by the broth microdilution method according to NCCLS standards (NCCLS, 1999). Bacterial strains were streaked onto blood agar plates and incubated at 35° C. for 18-24 hours. Two to three bacterial colonies from the overnight cultures were inoculated into 3 mL of sterile normal saline, vortexed briefly, and adjusted to a 0.5 McFarland standard (NCCLS, 2003). Fifty microliters of bacterial inoculum (approximately 2×10^5 CFU/mL) was pipeted into individual wells of 96-well plates containing 50 μl of CAMHB (Remel, Lenexa, Kanas) supplemented with 2-fold dilutions of antibiotics ranging in concentration from 0.125 μg/mL to 128 μg/mL. Plates were incubated at 35° C. for 18-24 hours and MIC determined as described in Example 5, Method C. The contents of wells showing no growth (MIC and above) were mixed with a pipetor and duplicate 10 μl samples spread onto blood agar plates. Culture plates were incubated at 35° C. for 18-24 hours and the number of bacterial colonies on each plate enumerated manually. Rejection values were determined by NCCLS methods which considers the final inoculum size, single or double sampling, pipetting error, and the Poisson distribution of sample responses (NCCLS, 1999). […] The MBC was defined as the ≧3 Log10 decrease in CFU/mL of the original inoculum as described by NCCLS standards (NCCLS, 1999). The MBC/MIC ratios were calculated by dividing the MBC by the MIC.

| Molecule | MBC/MIC Aminoglycoside |
| --- | --- |
| NCC[C@H](O)C(=O)N[C@@H]1C[C@H](N)[C@@H](O[C@H]2O[C@H](CN)[C@@H](O)[C@H](O)[C@H]2O)[C@H](O)[C@H]1O[C@H]1O[C@H](CO)[C@@H](O)[C@H](N)[C@H]1O [Amikacin, amikacin] | 2 |
| NCC[C@H](O)C(=O)N[C@@H]1C[C@H](N)[C@@H](O[C@H]2O[C@H](CN)CC[C@H]2N)[C@H](O)[C@H]1O[C@H]1O[C@H](CO)[C@@H](O)[C@H](N)[C@H]1O [Arbekacin, arbekacin] | 1 |
| [H]/N=C(/N)N[C@H]1[C@H](O)[C@@H](O)[C@H](O[C@@H]2O[C@@H](C)[C@](O)(C=O)[C@H]2O[C@@H]2O[C@@H](CO)[C@H](O)[C@@H](O)[C@@H]2NC)[C@@H](N/C(N)=N\[H])[C@@H]1O [Streptomycin, streptomycin] | 4 |
| gentamicin | 2 |
| neomycin | 2 |
| CCN[C@@H]1C[C@H](N)[C@@H](O[C@H]2OC(CN)=CC[C@H]2N)[C@H](O)[C@H]1O[C@H]1OC[C@](C)(O)[C@H](NC)[C@H]1O [Netilimicin, netilmicin] | 1 |
| NC[C@@H]1CC[C@@H](N)[C@@H](O[C@H]2[C@H](O)[C@@H](O[C@H]3O[C@H](CO)[C@@H](O)[C@H](N)[C@H]3O)[C@H](N)C[C@@H]2N)O1 [Dibekacin, dibekacin] | 1 |
